Drawing on PubChem BioAssay (NCI), this text covers GI50 and TGI for 9 molecules.

“And” between values parts separate entries of the source, which are not always exact repeats. Identical values can stand only once.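 Each compound was tested at five concentrations against cells in 96-well plates for 48 hours. GI50 is the concentration that inhibits growth by half. TGI is the concentration that stops growth completely.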 Bounds are passed on as bounds.

Common to all, as to assay: NCI tumour cell line growth inhibition, 48 h
In experiment [1] the test system is LOX IMVI melanoma.
Experiment [2] deals with MCF7 breast.
For experiment [3], the system named is NCI-H522 lung.
Experiment [4] has as its system NCI/ADR-RES ovarian.
The test system of experiment [5] is OVCAR-5 ovarian.
Experiment [6] has as its system RPMI-8226 leukemia.
Experiment [7] concerns SK-MEL-2 melanoma.
For experiment [8], the system named is SK-OV-3 ovarian.
Experiment [9] deals with SR leukemia.
Experiment [10] deals with SW-620 colon.

`COc1cc(-c2nc3sc4c(c3c(=O)[nH]2)CCCCCC4)cc(OC)c1OC`: the GI50 was 1420 nM in [1]; 903 nM in experiment [2]; 887 nM in [3]; 892 nM in experiment [4]; 2230 nM in experiment [5]; 1190 nM in experiment [6]. Also, the GI50 in experiment [7] was 1110 nM; in experiment [8], 890 nM; in experiment [9], 776 nM; in experiment [10], 1500 nM. The TGI in experiment [1] was more than 33200 nM; in [2], more than 33200 nM; in experiment [3], 9460 nM; in experiment [4] it was more than 33200 nM; in experiment [5] it was more than 33200 nM; in [6], 12600 nM. In addition, the TGI in experiment [7] was 7500 nM; in experiment [8] it was 16400 nM; in [9] it was more than 33200 nM; in [10], more than 33200 nM.
Take `N#CC1=C(N)NC(=O)NC12Nc1ccccc1S2` (centres undefined): the GI50 was 22900 nM in [1]; 24600 nM in experiment [2]; 28200 nM in experiment [3]; 24700 nM in experiment [4]; 27000 nM in [5]; more than 37000 nM in [6]. In addition, the GI50 in experiment [7] is more than 44400 nM; in [8] it was 30300 nM; in experiment [9], 10400 nM; in experiment [10], 28800 nM. In addition, the TGI in [1] is more than 59200 nM; in experiment [2], more than 73500 nM; in experiment [3], more than 71400 nM; in experiment [4] it was more than 68800 nM; in experiment [5], more than 72300 nM; in experiment [6] it was more than 55700 nM. In addition, the TGI was more than 64200 nM in experiment [7], more than 70700 nM in [8], more than 100000 nM in experiment [9] and more than 72600 nM in [10].
Regarding `CO[C@@H]1/C=C(C)/C=C/[C@@H](C)/C=C(\C)C(=O)OC(/C(C)=C/C=C(\C)CNC(=O)[C@H](CO)NC=O)[C@@H](C)/C=C/C=C/[C@H](OC)CC/C=C(C)/C=C/C1` (some centres undefined), the GI50 in [1] is less than 5 nM; in experiment [2] it was less than 5 nM; in experiment [3] it was less than 5 nM; in experiment [4], 58.7 nM; in experiment [5], 178 nM; in [6], less than 5 nM. In addition, the GI50 in [7] is less than 5 nM; in experiment [8], 332 nM; in experiment [9], less than 5 nM; in experiment [10], less than 5 nM. Besides, the TGI in experiment [1] is less than 5 nM; in experiment [2] it was 9140 nM; in experiment [3], 18700 nM; in [4], 15400 nM; in experiment [5], 12500 nM; in [6] it was 11800 nM. Besides, the TGI in experiment [8] was 9480 nM; in experiment [9], more than 11900 nM; in experiment [10] it was 13600 nM.
With `CC(=O)O/N=C1/C(c2c(O)[nH]c3cc(Br)ccc23)=Nc2ccccc21`, the GI50 in experiment [1] was 1130 nM; in [2] it was 1930 nM; in experiment [3], 1560 nM; in experiment [4], 1730 nM; in experiment [5], 2510 nM; in [6] it was 2030 nM. Besides, the GI50 in [7] is 1280 nM; in [8], 421 nM; in [9], 1630 nM; in experiment [10], 1820 nM. For the same molecule, the TGI in [1] is 2400 nM; in experiment [2], 5980 nM; in experiment [3], 3680 nM; in [4], 4590 nM; in experiment [5], 4170 nM; in [6] it was 5270 nM. Besides, the TGI was 2890 nM in [7], 1960 nM in [8], 5900 nM in experiment [9] and 3460 nM in [10].
On to `CN1CCN(Cc2ccc(NC(=O)c3ccc(C#Cc4c(N)ncc5ccc(F)cc45)cc3)cc2C(F)(F)F)CC1`, for which the GI50 is 929 nM in experiment [1]; 837 nM in experiment [2]; 860 nM in [3]; 1080 nM in [4]; 993 nM in [5]; 1080 nM in [6]. Further, the GI50 was 1080 nM in experiment [7], 2200 nM in experiment [8], 897 nM in [9] and 972 nM in experiment [10]. Besides, the TGI in experiment [1] was determined as 1690 nM; in experiment [2], 1590 nM; in experiment [3], 1590 nM; in [4], 2320 nM; in experiment [5], 1850 nM; in experiment [6] it was 2480 nM. In addition, the TGI in [7] was determined as 2040 nM; in [8], 7630 nM; in experiment [9] it was 2320 nM; in experiment [10], 1870 nM.
Take `O=C(CCl)N1c2ccccc2Sc2ccc3ccccc3c21`: the GI50 in [1] is 143 nM; in [2], 1490 nM; in [3], 509 nM; in [4], 2180 nM; in [5] it was 1480 nM; in experiment [6], 1320 nM. Moreover, the GI50 in [7] is 1970 nM; in experiment [8] it was 1790 nM; in experiment [9] it was 634 nM; in [10], 1270 nM. The TGI is 299 nM in experiment [1]; 3290 nM in experiment [2]; 1100 nM in [3]; 5260 nM in experiment [4]; 3030 nM in [5]; 4060 nM in [6]. For the same molecule, the TGI stood at 3800 nM in experiment [7], 3180 nM in [8], 9740 nM in experiment [9] and 2890 nM in [10].
On to `CCCCCCCCCCCCSC(=N)N`, for which the GI50 is 3580 nM in experiment [1]; 3440 nM in experiment [2]; 5210 nM in [3]; 10500 nM in experiment [4]; 12400 nM in [5]; 2940 nM in experiment [6]. For the same molecule, the GI50 in experiment [7] is 19500 nM; in experiment [8], 17400 nM; in experiment [9], 1790 nM; in [10], 2730 nM. Further, the TGI is 13300 nM in [1]; 15500 nM in experiment [2]; 21600 nM in experiment [3]; 26300 nM in [4]; 25300 nM in [5]; 10200 nM in experiment [6]. Also, the TGI in experiment [7] turned out to be 36200 nM; in experiment [8] it was 33500 nM; in [9], 4400 nM; in experiment [10], 8140 nM.
For the molecule `COc1cc2c[n+](C)c3c4ccccc4ccc3c2cc1OC` (tested in a mixture with another compound), the GI50 in [1] was 4020 nM; in [2], 19800 nM; in experiment [3], 785 nM; in experiment [5], 4670 nM; in [6], 1710 nM; in [7], 4250 nM. For the same molecule, the GI50 was 818 nM in experiment [9] and 2710 nM in experiment [10]. Further, the TGI in experiment [1] was 30900 nM; in experiment [3], 4370 nM and 11600 nM; in experiment [4] it was more than 100000 nM; in experiment [5], 52700 nM; in experiment [7] it was 21800 nM; in [8] it was 51200 nM. Further, in experiment [10], the TGI was 48000 nM.
Take `COc1ccc2c(c1)C(=O)/C(=C/c1ncc([N+](=O)[O-])n1C)O2`: the GI50 in experiment [1] was 179 nM; in experiment [2] it was 320 nM; in [3], 192 nM; in [4] it was 391 nM; in [5], 1750 nM; in experiment [6], 416 nM. Further, the GI50 was 361 nM in experiment [7], 2110 nM in experiment [8], 23.9 nM in [9] and 84.3 nM in experiment [10]. Further, the TGI came out at 481 nM in experiment [1]; 7980 nM in experiment [2]; 449 nM in experiment [3]; 6470 nM in [4]; 5670 nM in experiment [5]; 2060 nM in experiment [6]. The TGI came out at 1610 nM in experiment [7], 6430 nM in [8], 1350 nM in experiment [9] and 426 nM in experiment [10].
